This note sets out measurements from US20200078379A1, “DEFEROXAMINE DERIVATIVES AS MEDICAMENTS” (BIOTECHNOLOGICKY USTAV AV CR, V.V.I., priority 2017, published 2020).

pIC50: −log10 of the molar value. Where two headings read alike, the source gives them in different places.

For test [1], the system named is MDA-MB-231 cells. In words: crystal violet assay, cellular viability. The class given is cell-based, human. The settings on record: Homo sapiens, read-out: IC50 cellular viability. The method, then:
(§1) Compound 1 and compound 2 were tested in their efficacy to kill malignant MCF7 cancer cells. Briefly, 10.000 cells per well were seeded in a 96-well plat on one day and the next day selected compounds were added and incubated with the cells for 48 hrs. The cells were then fixed with 4% paraformaldehyde, stained with 0.05% crystal violet, washed with PBS, and solubilized in 1% SDS. The absorbance of the plate at 595 nm was then measured, quantifying the number of viable cells.
(§2) A number of compounds of the present invention were tested for cytotoxicity towards at least some of human breast cancer cell lines (MCF7, MDA-MB-231), human fibroblast (BJ) and murine triple negative breast cancer cell line 4T1 (Table 2).

The test system of test [2] is MCF7 cells. In words: crystal violet assay, cellular viability. The class given is cell-based, human. The note with it: for pIC50: MCF7, 48 h, read-out: IC50 cellular viability. The method, then: as §1, §2
The subject of test [3] is murine triple negative breast cancer cell line 4T1. In words: crystal violet assay, cellular viability. The class given is cell-based. The settings on record: Mus musculus, 4T1, 48 hours. On the procedure: as §1, §2
Test [4] deals with T47D cells. The experiment in a line: AnnexinV/PI cell death assay. The class given is cell-based. The settings on record: 200 μM, 48 hrs. The method, then:
(§3) To confirm such findings by an independent method, cell death-inducing potency (cytotoxic efficacy) of DFO and compound 2 have been tested via annexin V/PI staining commonly used as a measure of apoptotic/necrotic cell death. Briefly, cells were seeded in 12-well plate at 100,000 per well, incubated with the selected compounds for 48 hours, then floating cells were spun, adherent cells trypsinized and spun as well followed by the staining with AnnexinV-FITC and PI probes. Cells were then washed with PBS and measured via Fluorescence Activated Sorter.
Since compound 2 is an iron chelator, we have evaluated the effect of pretreating compound 2 with iron. at a 1:1 ratio by using the Annexin V/PI staining as in example 7.

For another test, the system named is non malignant cells (BJ). In words: AnnexinV/PI cell death assay. The class given is cell-based. On the procedure:
as §3
We have then analyzed the percentage of death cells by the annexinV/PI staining as described in example 7. We have observed a significant potentiation in cell death induction when gallium was combined with compound 2 (Table 14)

The next test has as its system BT474 cells. In words: AnnexinV/PI cell death assay. The settings on record: BT474, 200 μM, 48 hrs. The class given is cell-based. The method, then: as §3
For the next test, the system named is BT549 cells. The experiment in a line: AnnexinV/PI cell death assay. The settings on record: BT549, 200 μM, 48 hrs. The class given is cell-based. The method, then:
as §3

The subject of test [5] is MDA-MB-231 cells. The experiment in a line: AnnexinV/PI cell death assay. The class given is cell-based, human. The note with it: MDA-MB-231, 200 μM, 48 hrs. The method, then: as §3
Test [6] concerns T47D cells. In words: crystal violet assay, cellular viability. The class given is cell-based. The settings on record: 48 hours.
Test [7] relates to non malignant cells (BJ), human fibroblast. The experiment in a line: crystal violet assay, cellular viability. The class given is cell-based. The method, then: as §1, §2
The subject of test [8] is MCF7 cells. The experiment in a line: cellular proliferation in real time, Xcelligence technology. The class given is cell-based. The method, then: The ability of compound 2 to affect the proliferation and cell death induction in real time was monitored by the Xcelligence technology that detects changes in electrical impedance related to the cell number. In brief, special 16-well e-plates containing gold electrodes were filled with medium, blank values were recorded, and then 5.000 cells per well were seeded in the plate and let to attach for 2 hours, followed by the addition of compounds. The electrical impedance was then monitored over time in real-time every 15 minutes. In this case a line is drawn that reflects the cell number over time. […] We have seen a clear inhibition of proliferation with compound 2 at 1 μM, complete block of proliferation at 2 μM concentration, while the cytotoxic effect is seen at 5 μM (Table 9).

Test [9] has as its system MCF7 cells. In words: AnnexinV/PI cell death assay. The class given is cell-based, human. The method, then: Briefly, cells were seeded in 12-well plate at 100,000 per well, incubated with the selected compounds for 48 hours, then floating cells were spun, adherent cells trypsinized and spun as well followed by the staining with AnnexinV-FITC and PI probes. Cells were then washed with PBS and measured via Fluorescence Activated Sorter.

The subject of test [10] is human mammary gland cancer cell line MDA-MB-231. The experiment in a line: dose-effect relationship of drugs and mixtures, crystal violet assay, Median-Effect / Combination index. The class given is cell-based. The method, then:
(§4) The potentiation of cytotoxic effect of compound 2 in combination with several cytostatics was evaluated. The dose-effect relationship of individual drugs and mixtures of compound 2 with paclitaxel, cis Pt (cis-platin), doxorubicin and fluorouracil was determined on human mammary gland cancer cell line MDA-MB-231 and pancreatic cell line BxPC3 by means of crystal violet assay. The linearized Median-Effect Plot of dose response line provided both parameters (IC50; trend line m(slope) value) of Median-Effect Equation for individual and combination treatment [ref: Theoretical basis, experimental design, and computerized simulation of synergism and antagonism in drug combination studies; Ting-Chao Chou: Pharmacol Rev. 58(3), 2006, 621-81; Erratum in Pharmacol Rev. 2007; 59(1), 124]:
(§5) Potentiation of combination effect of compound 2 was expressed for concentrations IC50, IC75, IC90, IC95 by calculation of Combination index (CI) applying Combination Index Theorem for mutually exclusive drugs. Overall CI was expressed by means of weighted average of IC50, IC75, IC90, IC95 [ref: Quantitative analysis of dose-effect relationships: the combined effects of multiple drugs or enzyme inhibitors; Ting-Chao Chou, Paul Talalay: Advances in Enzyme Regulation, Volume 22, 1984, Pages 27-55]: […]

Test [11] has as its system pancreatic cell line BxPC3. The test is described as above. The class given is cell-based. The note with it: 48 hours. The method, then: as §4, §5
Setting [12] is: MDA-MB-231, 48 hours, crystal violet.

Regarding `CC(=O)N(O)CCCCCNC(=O)CCC(=O)N(O)CCCCCNC(=O)CCC(=O)N(O)CCCCCN(CCCCCCCCCC[P+](C1CCCCC1)(C1CCCCC1)C1CCCCC1)CCCCCCCCCC[P+](C1CCCCC1)(C1CCCCC1)C1CCCCC1` [Compound 4, Tricyclohexyl(3,14,25-trihydroxy-2,10,13,21,24-pentaoxo-31-(10-(tricyclohexylphosphonio)decyl)-3,9,14,20,25,31-hexaazahentetracontan-31-ium-41-yl) phosphonium trichloride], the pIC50 (usually the negative decadic logarithm of the IC50, by convention in mol/L) in the test with MDA-MB-231 cells [1] (MDA-MB-231, 48 h) was 5.89; in the test on MCF7 cells [2] (Homo sapiens, crystal violet), 6.15; in test [3], 5.74.
Consider `CCCC[P+](CCCC)(CCCC)CCCCCCCCCCN(CCCCCCCCCC[P+](CCCC)(CCCC)CCCC)CCCCCN(O)C(=O)CCC(=O)NCCCCCN(O)C(=O)CCC(=O)NCCCCCN(O)C(C)=O` [Compound 6, 42,42-dibutyl-3,14,25-trihydroxy-2,10,13,21,24-pentaoxo-31-(10-(tributylphosphonio)decyl)-3,9,14,20,25,31-hexaaza-42-phosphahexatetracontane-31,42-diium trichloride], for which the pIC50 in the test with MDA-MB-231 cells [1] (setting [12]) was 5.55; in the test with MCF7 cells [2] (Homo sapiens, crystal violet), 5.52; in test [3], 5.31.
In the case of `CC(=O)N(O)CCCCCNC(=O)CCC(=O)N(O)CCCCCNC(=O)CCC(=O)N(O)CCCCCN(CCCCCCCCCCCC[P+](c1ccccc1)(c1ccccc1)c1ccccc1)CCCCCCCCCCCC[P+](c1ccccc1)(c1ccccc1)c1ccccc1` [Compound 8, Triphenyl(3,14,25-trihydroxy-2,10,13,21,24-pentaoxo-31-(12-(triphenylphosphonio)dodecyl)-3,9,14,20,25,31-hexaazatritetracontan-31-ium-43-yl)phosphonium trichloride], the pIC50 with MDA-MB-231 cells [1] (MDA-MB-231, 48 h) is 6.22; in the test on MCF7 cells [2] (Homo sapiens, crystal violet) it was 6.30; in test [3], 5.92.
For the molecule `CC(=O)N(O)CCCCCNC(=O)CCC(=O)N(O)CCCCCNC(=O)CCC(=O)N(O)CCCCCN(CCCCCCCCCC[P+](Cc1ccccc1)(Cc1ccccc1)Cc1ccccc1)CCCCCCCCCC[P+](Cc1ccccc1)(Cc1ccccc1)Cc1ccccc1` [Compound 9, 2,2-dibenzyl-19,30,41-trihydroxy-20,23,31,34,42-pentaoxo-1-phenyl-13410-(tribenzylphosphonio)decyl)-13,19,24,30,35,41-hexaaza-2-phosphatritetracontane-2,13-diium trichloride], the pIC50 in the test on MDA-MB-231 cells [1] (MDA-MB-231, 48 h) is 6.10; with MCF7 cells [2] (Homo sapiens, crystal violet) it was 6.05; in test [3], 5.74.
Regarding `CCCCCCCC[P+](CCCCCCCC)(CCCCCCCC)CCCCCCCCCCN(CCCCCCCCCC[P+](CCCCCCCC)(CCCCCCCC)CCCCCCCC)CCCCCN(O)C(=O)CCC(=O)NCCCCCN(O)C(=O)CCC(=O)NCCCCCN(O)C(C)=O` [Compound 10, 3,14,25-trihydroxy-42,42-dioctyl-2,10,13,21,24-pentaoxo-31-(10-(trioctylphosphonio)decyl)-3,9,14,20,25,31-hexaaza-42-phosphapentacontane-31,42-diium trichloride], the pIC50 with MDA-MB-231 cells [1] (setting [12]) was 6.15; in the test with MCF7 cells [2] (Homo sapiens, crystal violet), 6.10; in test [3] it was 5.89.
As to `CC(=O)N(O)CCCCCNC(=O)CCC(=O)N(O)CCCCCNC(=O)CCC(=O)N(O)CCCCCN(Cc1cnnn1CCCCCCCCCC[P+](c1ccccc1)(c1ccccc1)c1ccccc1)Cc1cnnn1CCCCCCCCCC[P+](c1ccccc1)(c1ccccc1)c1ccccc1` [Compound 20, Triphenyl(10-(5-(8,19,30-trihydroxy-9,12,20,23,31-pentaoxo-2-((1-(10-(triphenylphosphonio)decyl)-1H-1,2,3-triazol-5-yl)methyl)-2,8,13,19,24,30-hexaazadotriacontyl)-1H-1,2,3-triazol-1-yl)decyl)phosphonium], the pIC50 in test [3] is 5.66.
`CC(=O)N(O)CCCCCNC(=O)CCC(=O)N(O)CCCCCNC(=O)CCC(=O)N(O)CCCCCN` [DFO, deferoxamine]: the “Selectivity index (IC50 non-malignant/IC50 malignant)” value in the test on MCF7 cells [2] (BJ vs MCF7, 48 hours) is on record as 1.72; in the test with T47D cells [6] (BJ vs T47D), 0.80; in [7] (BJ vs BJ (reference)), 1. For the same molecule, in the test with MCF7 cells [2] (Homo sapiens, MCF7, 2 μM, 48 hrs, crystal violet, read-out: mean percentage of viable cells compared to non-treated controls), the viability at 2 µM came out at 92%. The viability at 5 µM with MCF7 cells [2] (Homo sapiens, MCF7, 5 μM, 48 hrs, crystal violet, read-out: mean percentage of viable cells compared to non-treated controls) amounted to 95.9%. The viability at 10 µM in the test with MCF7 cells [2] (Homo sapiens, MCF7, 10 μM, 48 hrs, crystal violet, read-out: mean percentage of viable cells compared to non-treated controls) amounted to 92.2%. In addition, the “mean percentage of dead cells (AnnexinV/PI)” value was 14.1 (7.2) % in the test on T47D cells [4]; 10.5% in the test on non malignant cells (BJ) (200 μM, 48 hrs); 19.2% in the test on BT474 cells; 18.3% in the test with BT549 cells; 22.4% in the test on MDA-MB-231 cells [5]; 45.0% in the test on MCF7 cells [9] (MCF7, 200 μM, 48 hrs). Further, the pIC50 with T47D cells [6] (Homo sapiens, T47D, crystal violet, read-out: IC50 cellular viability) is 3.56; in test [7] (Homo sapiens, Fibroblast, BJ non malignant, 48 hours, crystal violet), 3.66. The “slope of the line (relative number of cells in relation to time)” value in the test on MCF7 cells [8] (MCF7, 0-15 h, 1 μM) turned out to be 1.02; in the test on MCF7 cells [8] (MCF7, 0-15 h, 2 μM) it was 1.12; with MCF7 cells [8] (MCF7, 0-15 h, 5 μM) it was 1.01; in the test on MCF7 cells [8] (MCF7, 0-36 h, 1 μM), 1.31; with MCF7 cells [8] (MCF7, 0-36 h, 2 μM) it was 1.53; with MCF7 cells [8] (MCF7, 0-36 h, 5 μM) it was 0.50.
For the molecule `[Cl][Ga]([Cl])[Cl]` [GaCl3, gallium chloride, reference compound], the “percentage of death cells by annexinV/PI staining” value in the test on non malignant cells (BJ) (ratio Ga:compound 2 1:0, 5 μM gallium salt alone) was 2.4 (0.1); with MCF7 cells [9] (MCF7, ratio Ga:compound 2 1:0, 5 μM gallium salt alone), 5.9 (2.5).
Regarding `N.N.[Cl][Pt][Cl]` [cis Pt, cis-platin], in test [10] (MDA-MB-231), the “concentration of the cytostatic at IC75, cytostatic alone” value came to 42275.1 nM. In addition, the “Median-Effect Plot parameter m (slope)” value in test [10] (MDA-MB-231, crystal violet, 48 hours) amounted to 1.4574; in test [11], 1.59. Also, the pIC50 in [10] (MDA-MB-231, crystal violet, 48 hours, Chou-Talalay method, read-out: Median-Effect Plot parameter IC50) was 4.66; in [11] (read-out: Median-Effect Plot parameter IC50), 5.38.
